Experimental data reported in patent publication US12655116B2, “Substituted isophthalic acid diamides” (Bayer Aktiengesellschaft, priority 2020, dated 2026).

Assays:
DIGSA [1] = test: Pre-emergence herbicidal action against DIGSA; type: in vivo, Digitaria sanguinalis
Summary of the method: (§1)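 Visual rating at 3 weeks vs untreated pots; 0–100% scale, 100% = plants died. Treatment: aqueous WP/EC spray onto covering soil, 600–800 l/ha, 0.2% wetter, seeds in sandy loam.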

VERPE [2] = test: Post-emergence herbicidal action against VERPE; type: in vivo, Veronica persica; settings: 20 g/ha
Summary of the method: (§2)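 Greenhouse pot plants in sandy loam were sprayed at the one-leaf stage, 2 to 3 weeks after sowing, with WP or EC formulations as aqueous suspension or emulsion (600 to 800 l/ha water, 0.2% wetting agent). About 3 weeks later, damage was scored visually against untreated controls as % action (100% = dead, 0% = like control).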

DIGSA [3] = test: Post-emergence herbicidal action against DIGSA; type: in vivo, Digitaria sanguinalis; settings: for Post-emergence action against DIGSA in %: 5 g/ha; for Post-emergence action against DIGSA: 20 g/ha
Summary of the method: as §2

MATIN [4] = test: Pre-emergence herbicidal action against MATIN; type: in vivo, Matricaria inodora
Summary of the method: as §1

VIOTR [5] = test: Pre-emergence herbicidal action against VIOTR; type: in vivo, Viola tricolor
Summary of the method: as §1

VIOTR [6] = test: Post-emergence herbicidal action against VIOTR; type: in vivo, Viola tricolor
Summary of the method: as §2

PHBPU [7] = test: Post-emergence herbicidal action against PHBPU; type: in vivo, Pharbitis purpurea
Summary of the method: as §2

AVEFA [8] = test: Pre-emergence herbicidal action against AVEFA; type: in vivo, Avena fatua; settings: 80 g/ha, pre-emergence
Summary of the method: as §1

HORMU [9] = test: Pre-emergence herbicidal action against HORMU; type: in vivo, Hordeum murinum; settings: 80 g/ha, pre-emergence
Summary of the method: as §1

MATIN [10] = test: Post-emergence herbicidal action against MATIN; type: in vivo, Matricaria inodora
Summary of the method: as §2

POLCO [11] = test: Pre-emergence herbicidal action against POLCO; type: in vivo, Polygonum convolvulus
Summary of the method: as §1

ALOMY [12] = test: Pre-emergence herbicidal action against ALOMY; type: in vivo, Alopecurus myosuroides; settings: 80 g/ha, pre-emergence, scored visually after 3 weeks vs untreated controls (100% = plants have died, 0% = like control plants)
Summary of the method: as §1

ALOMY [13] = test: Post-emergence herbicidal action against ALOMY; type: in vivo, Alopecurus myosuroides; settings: dosage 20 g/ha, visual assessment about 3 weeks after treatment vs untreated controls
Summary of the method: as §2

HORMU [14] = test: Post-emergence herbicidal action against HORMU; type: in vivo, Hordeum murinum; settings: dosage 20 g/ha
Summary of the method: as §2

STEME [15] = test: Post-emergence herbicidal action against STEME; type: in vivo, Stellaria media
Summary of the method: as §2

PHBPU [16] = test: Pre-emergence herbicidal action against PHBPU; type: in vivo, Pharbitis purpurea; settings: dosage 80 g/ha
Summary of the method: as §1

LOLRI = test: Pre-emergence herbicidal action against LOLRI; type: in vivo, Lolium rigidum; settings: 80 g/ha
Summary of the method: as §1

VERPE [17] = test: Pre-emergence herbicidal action against VERPE; type: in vivo, Veronica persica; settings: dosage 80 g/ha
Summary of the method: as §1

STEME [18] = test: Pre-emergence herbicidal action against STEME; type: in vivo, Stellaria media
Summary of the method: as §1

ECHCG [19] = test: Post-emergence herbicidal action against ECHCG; type: in vivo, Echinochloa crus-galli
Summary of the method: as §2

AVEFA [20] = test: Post-emergence herbicidal action against AVEFA; type: in vivo, Avena fatua; settings: 20 g/ha, visual assessment about 3 weeks after treatment, 100% = plants have died, 0% = like control plants
Summary of the method: as §2

ABUTH [21] = test: Pre-emergence herbicidal action against ABUTH; type: in vivo, Abutilon theophrasti; settings: for Pre-emergence action against ABUTH (herbicidal activity): 80 g/ha, scored visually after 3 weeks vs untreated controls (100% = plants have died, 0% = like control plants); for Pre-emergence action against ABUTH (herbicidal activity in percent): dosage 20 g/ha, scored visually after 3 weeks vs untreated controls, 100% = plants have died, 0% = like control plants
Summary of the method: as §1

ABUTH [22] = test: Post-emergence herbicidal action against ABUTH; type: in vivo, Abutilon theophrasti; settings: visual assessment about 3 weeks after treatment vs untreated controls
Summary of the method: as §2

ECHCG [23] = test: Pre-emergence herbicidal action against ECHCG; type: in vivo, Echinochloa crus-galli; settings: 80 g/ha
Summary of the method: as §1

SETVI [24] = test: Post-emergence herbicidal action against SETVI; type: in vivo, Setaria viridis
Summary of the method: as §2

AMARE [25] = test: Pre-emergence herbicidal action against AMARE; type: in vivo, Amaranthus retroflexus
Summary of the method: as §1

SETVI [26] = test: Pre-emergence herbicidal action against SETVI; type: in vivo, Setaria viridis
Summary of the method: as §1

AMARE [27] = test: Post-emergence herbicidal action against AMARE; type: in vivo, Amaranthus retroflexus; settings: 20 g/ha, visual assessment about 3 weeks after treatment, 100% = plants have died, 0% = like control plants
Summary of the method: as §2

POLCO [28] = test: Post-emergence herbicidal action against POLCO; type: in vivo, Polygonum convolvulus; settings: dosage 20 g/ha
Protocol: Seeds of monocotyledonous and dicotyledonous weed and crop plants are laid out in sandy loam soil in wood-fiber pots, covered with soil and cultivated in a greenhouse under good growth conditions. 2 to 3 weeks after sowing, the test plants are treated at the one-leaf stage. The compounds of the invention, formulated in the form of wettable powders (WP) or as emulsion concentrates (EC), are then sprayed onto the green parts of the plants in the form of an aqueous suspension or emulsion at a water application rate equivalent to 600 to 800 l/ha, with addition of 0.2% wetting agent. After the test plants have been left to stand in the greenhouse under optimal growth conditions for about 3 weeks, the action of the preparations is assessed visually in comparison to untreated controls (herbicidal action in percent (%): 100% activity=the plants have died, 0% activity=like control plants). […] The tables below illustrate, in an illustrative manner, the post-emergence herbicidal action of the compounds of the invention, the herbicidal activity being stated in percent.

[29] = 20 g/ha, scored visually after 3 weeks vs untreated controls, 100% = plants have died, 0% = like control plants
[30] = 80 g/ha, scored visually after 3 weeks vs untreated controls (100% = plants have died, 0% = like control plants)

CCn1nnnc1NC(=O)c1ccc(C(F)(F)F)c(C(=O)NC)c1C [Example 2-25]
100%: Pre-emergence action against DIGSA in % (DIGSA [1]; dosage 20 g/ha) | Pre-emergence action against DIGSA in % (DIGSA [1]; dosage 80 g/ha) | Pre-emergence action against MATIN in % (MATIN [4]; dosage 20 g/ha) | Pre-emergence action against MATIN in % (MATIN [4]; dosage 80 g/ha) | Pre-emergence action against VIOTR in % (VIOTR [5]; dosage 80 g/ha) | Pre-emergence action against AVEFA in % (AVEFA [8]) | Post-emergence action against MATIN in % (MATIN [10]; dosage 20 g/ha) | Pre-emergence action against POLCO in % (POLCO [11]; dosage 20 g/ha) | Pre-emergence action against POLCO in % (POLCO [11]; dosage 80 g/ha) | Post-emergence action against STEME in % (STEME [15]; 20 g/ha) | Pre-emergence action against VERPE in % (VERPE [17]) | Pre-emergence action against STEME in % (STEME [18]; dosage 80 g/ha) | Post-emergence action at 20 g/ha against AVEFA in % (AVEFA [20]) | Pre-emergence action against ABUTH (herbicidal activity) (ABUTH [21]) | Pre-emergence action against ABUTH (herbicidal activity in percent) (ABUTH [21]) | Post-emergence action against ABUTH in % (ABUTH [22]; dosage 5 g/ha) | Post-emergence action against ABUTH in % (ABUTH [22]; dosage 20 g/ha) | Pre-emergence action against ECHCG in % (ECHCG [23]) | Pre-emergence action against AMARE in % (AMARE [25]; [29]) | Pre-emergence action against AMARE in % (AMARE [25]; [30]) | Pre-emergence action against SETVI in % (SETVI [26]; dosage 20 g/ha) | Pre-emergence action against SETVI in % (SETVI [26]; dosage 80 g/ha)
90%: Post-emergence action against VERPE in % (VERPE [2]) | Post-emergence action against DIGSA (DIGSA [3]) | Post-emergence action against VIOTR in % (VIOTR [6]; 20 g/ha) | Post-emergence action against PHBPU in % (PHBPU [7]; dosage 20 g/ha) | Pre-emergence action against HORMU in % (HORMU [9]) | Post-emergence action against MATIN in % (MATIN [10]; dosage 5 g/ha) | Pre-emergence action against ALOMY (herbicidal activity) (ALOMY [12]) | Post-emergence action against ALOMY in % (ALOMY [13]) | Post-emergence action against STEME in % (STEME [15]; dosage 5 g/ha) | Pre-emergence action against STEME in % (STEME [18]; dosage 20 g/ha)
80%: Post-emergence action against DIGSA in % (DIGSA [3]) | Post-emergence action against VIOTR in % (VIOTR [6]; 5 g/ha) | Post-emergence action against PHBPU in % (PHBPU [7]; dosage 5 g/ha) | Post-emergence action against HORMU in % (HORMU [14]) | Pre-emergence action against PHBPU in % (PHBPU [16]) | Pre-emergence action against LOLRI in % (LOLRI) | Post-emergence action against ECHCG in % (ECHCG [19]; dosage 20 g/ha) | Post-emergence action against SETVI in % (SETVI [24]; dosage 20 g/ha)

CCNC(=O)c1c(C(F)F)ccc(C(=O)Nc2nnnn2CC)c1SC [Example 2-88]
100%: Pre-emergence action against DIGSA in % (DIGSA [1]; dosage 20 g/ha) | Pre-emergence action against DIGSA in % (DIGSA [1]; dosage 80 g/ha) | Pre-emergence action against MATIN in % (MATIN [4]; dosage 20 g/ha) | Pre-emergence action against MATIN in % (MATIN [4]; dosage 80 g/ha) | Pre-emergence action against VIOTR in % (VIOTR [5]; dosage 20 g/ha) | Pre-emergence action against VIOTR in % (VIOTR [5]; dosage 80 g/ha) | Post-emergence action against STEME in % (STEME [15]; 20 g/ha) | Pre-emergence action against VERPE in % (VERPE [17]) | Pre-emergence action against STEME in % (STEME [18]; dosage 20 g/ha) | Pre-emergence action against STEME in % (STEME [18]; dosage 80 g/ha) | Pre-emergence action against ABUTH (herbicidal activity) (ABUTH [21]) | Pre-emergence action against ABUTH (herbicidal activity in percent) (ABUTH [21]) | Pre-emergence action against ECHCG in % (ECHCG [23]) | Post-emergence action against SETVI in % (SETVI [24]; dosage 20 g/ha) | Pre-emergence action against AMARE in % (AMARE [25]; [29]) | Pre-emergence action against AMARE in % (AMARE [25]; [30]) | Pre-emergence action against SETVI in % (SETVI [26]; dosage 80 g/ha)
90%: Post-emergence action against DIGSA in % (DIGSA [3]) | Post-emergence action against DIGSA (DIGSA [3]) | Post-emergence action against VIOTR in % (VIOTR [6]; 20 g/ha) | Post-emergence action against PHBPU in % (PHBPU [7]; dosage 20 g/ha) | Pre-emergence action against AVEFA in % (AVEFA [8]) | Pre-emergence action against POLCO in % (POLCO [11]; dosage 80 g/ha) | Pre-emergence action against ALOMY (herbicidal activity) (ALOMY [12]) | Post-emergence action at 20 g/ha against AMARE in % (AMARE [27]) | Post-emergence action against STEME in % (STEME [15]; dosage 5 g/ha) | Pre-emergence action against PHBPU in % (PHBPU [16]) | Post-emergence action against ABUTH in % (ABUTH [22]; dosage 5 g/ha) | Post-emergence action against ABUTH in % (ABUTH [22]; dosage 20 g/ha) | Post-emergence action against SETVI in % (SETVI [24]; dosage 5 g/ha)
80%: Post-emergence action against VERPE in % (VERPE [2]) | Post-emergence action against VIOTR in % (VIOTR [6]; 5 g/ha) | Post-emergence action against PHBPU in % (PHBPU [7]; dosage 5 g/ha) | Pre-emergence action against HORMU in % (HORMU [9]) | Post-emergence action against MATIN in % (MATIN [10]; dosage 20 g/ha) | Post-emergence action against ALOMY in % (ALOMY [13]) | Post-emergence action against HORMU in % (HORMU [14]) | Pre-emergence action against LOLRI in % (LOLRI) | Post-emergence action against ECHCG in % (ECHCG [19]; dosage 5 g/ha) | Post-emergence action against ECHCG in % (ECHCG [19]; dosage 20 g/ha) | Post-emergence action at 20 g/ha against AVEFA in % (AVEFA [20])

CCNC(=O)c1c(Br)ccc(C(=O)Nc2nnc(C)o2)c1Cl [Example 6-141]
90%: Pre-emergence action against DIGSA in % (DIGSA [1]; dosage 20 g/ha) | Pre-emergence action against ALOMY (herbicidal activity) (ALOMY [12]) | Post-emergence action against ALOMY in % (ALOMY [13]) | Pre-emergence action against ECHCG in % (ECHCG [23])
100%: Pre-emergence action against DIGSA in % (DIGSA [1]; dosage 80 g/ha) | Post-emergence action at 20 g/ha against AMARE in % (AMARE [27]) | Pre-emergence action against AMARE in % (AMARE [25]; [30])
80%: Post-emergence action against DIGSA (DIGSA [3]) | Pre-emergence action against MATIN in % (MATIN [4]; dosage 80 g/ha) | Post-emergence action against VIOTR in % (VIOTR [6]; 20 g/ha) | Pre-emergence action against AVEFA in % (AVEFA [8]) | Post-emergence action against POLCO in % (POLCO [28]) | Post-emergence action against ECHCG in % (ECHCG [19]; dosage 20 g/ha) | Post-emergence action against ABUTH in % (ABUTH [22]; dosage 20 g/ha)
